Data as given in PubChem BioAssay (NCI).
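Following 48 hours of exposure in 96-well plates, responses at five concentrations were used to interpolate endpoints linearly. Definition used: TGI = concentration required for complete inhibition of growth.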

Key:
Assay in all cases: NCI tumour cell line growth inhibition, 48 h
786-0 renal = test system: 786-0 renal
A498 renal = test system: A498 renal
A549 NSCLC = test system: A549 NSCLC
ACHN renal = test system: ACHN renal
CAKI-1 renal = test system: CAKI-1 renal
CCRF-CEM leukemia = test system: CCRF-CEM leukemia
COLO 205 colon = test system: COLO 205 colon
DLD-1 colon = test system: DLD-1 colon
DMS 114 small cell lung = test system: DMS 114 small cell lung
DMS 273 small cell lung = test system: DMS 273 small cell lung
EKVX NSCLC = test system: EKVX NSCLC
HCC-2998 colon = test system: HCC-2998 colon
HCT-116 colon = test system: HCT-116 colon
HCT-15 colon = test system: HCT-15 colon
HL-60(TB) leukemia = test system: HL-60(TB) leukemia
HOP-18 NSCLC = test system: HOP-18 NSCLC
HOP-62 NSCLC = test system: HOP-62 NSCLC
HT29 colon = test system: HT29 colon
IGROV1 ovarian = test system: IGROV1 ovarian
K-562 leukemia = test system: K-562 leukemia
KM12 colon = test system: KM12 colon
KM20L2 colon = test system: KM20L2 colon
LOX IMVI melanoma = test system: LOX IMVI melanoma
LXFL 529 NSCLC = test system: LXFL 529 NSCLC
M14 melanoma = test system: M14 melanoma
M19-MEL melanoma = test system: M19-MEL melanoma
MALME-3M melanoma = test system: MALME-3M melanoma
MOLT-4 leukemia = test system: MOLT-4 leukemia
NCI-H226 lung = test system: NCI-H226 lung
NCI-H23 lung = test system: NCI-H23 lung
NCI-H460 lung = test system: NCI-H460 lung
NCI-H522 lung = test system: NCI-H522 lung
OVCAR-3 ovarian = test system: OVCAR-3 ovarian
OVCAR-4 ovarian = test system: OVCAR-4 ovarian
OVCAR-5 ovarian = test system: OVCAR-5 ovarian
OVCAR-8 ovarian = test system: OVCAR-8 ovarian
RPMI-8226 leukemia = test system: RPMI-8226 leukemia
SF-268 CNS = test system: SF-268 CNS
SF-295 CNS = test system: SF-295 CNS
SF-539 CNS = test system: SF-539 CNS
SK-MEL-2 melanoma = test system: SK-MEL-2 melanoma
SK-MEL-5 melanoma = test system: SK-MEL-5 melanoma
SK-OV-3 ovarian = test system: SK-OV-3 ovarian
SN12C renal = test system: SN12C renal
SNB-19 CNS = test system: SNB-19 CNS
SNB-75 CNS = test system: SNB-75 CNS
SNB-78 CNS = test system: SNB-78 CNS
SR leukemia = test system: SR leukemia
SW-620 colon = test system: SW-620 colon
TK-10 renal = test system: TK-10 renal
U251 CNS = test system: U251 CNS
UACC-257 melanoma = test system: UACC-257 melanoma
UACC-62 melanoma = test system: UACC-62 melanoma
UO-31 renal = test system: UO-31 renal
XF 498 CNS = test system: XF 498 CNS
HOP-92 NSCLC = test system: HOP-92 NSCLC
RXF 393 renal = test system: RXF 393 renal
SK-MEL-28 melanoma = test system: SK-MEL-28 melanoma

Molecule `N=S(c1ccccc1)c1ccccc1[N+](=O)[O-]` (stereo unspecified) has a TGI (786-0 renal) of 30.3 µM, a TGI (A498 renal) of over 100 µM and a TGI (A549 NSCLC) of 32.1 µM. The TGI (ACHN renal) was 31 µM, the TGI (CAKI-1 renal) was 28.8 µM and the TGI (CCRF-CEM leukemia) was 43.4 µM. For the same molecule, the TGI (COLO 205 colon) was 34 µM, the TGI (DLD-1 colon) was 46 µM and the TGI (DMS 114 small cell lung) was 32.7 µM. The TGI (DMS 273 small cell lung) was 34.4 µM, the TGI (EKVX NSCLC) was 38.5 µM and the TGI (HCC-2998 colon) was 33.4 µM. For the same molecule, the TGI (HCT-116 colon) was 31.6 µM, the TGI (HCT-15 colon) was 30.4 µM and the TGI (HL-60(TB) leukemia) was 36.5 µM. For the same molecule, the TGI (HOP-18 NSCLC) was over 100 µM, the TGI (HOP-62 NSCLC) was 52.6 µM and the TGI (HT29 colon) was 38.7 µM. It also gave a TGI (IGROV1 ovarian) of 32.9 µM, a TGI (K-562 leukemia) of 45 µM and a TGI (KM12 colon) of 32.7 µM. The TGI (KM20L2 colon) was 41.5 µM, the TGI (LOX IMVI melanoma) was 28.2 µM and the TGI (LXFL 529 NSCLC) was 30.9 µM. It also gave a TGI (M14 melanoma) of 27.7 µM, a TGI (M19-MEL melanoma) of 29.7 µM and a TGI (MALME-3M melanoma) of 30.1 µM. For the same molecule, the TGI (MOLT-4 leukemia) was 64.3 µM, the TGI (NCI-H226 lung) was 25.4 µM and the TGI (NCI-H23 lung) was 35.2 µM. It also gave a TGI (NCI-H460 lung) of 51 µM, a TGI (NCI-H522 lung) of 11.7 µM and a TGI (OVCAR-3 ovarian) of 23.2 µM. For the same molecule, the TGI (OVCAR-4 ovarian) was 28.4 µM, the TGI (OVCAR-5 ovarian) was 34.7 µM and the TGI (OVCAR-8 ovarian) was 51.5 µM. For the same molecule, the TGI (RPMI-8226 leukemia) was 54.6 µM, the TGI (SF-268 CNS) was 42.1 µM and the TGI (SF-295 CNS) was 36.7 µM. The TGI (SF-539 CNS) was 37.8 µM, the TGI (SK-MEL-2 melanoma) was 67.7 µM and the TGI (SK-MEL-5 melanoma) was 28.5 µM. The TGI (SK-OV-3 ovarian) was 84.6 µM, the TGI (SN12C renal) was 29.2 µM and the TGI (SNB-19 CNS) was 35.2 µM. The TGI (SNB-75 CNS) was 95.1 µM, the TGI (SNB-78 CNS) was over 100 µM and the TGI (SR leukemia) was 50.1 µM. The TGI (SW-620 colon) was 31.4 µM, the TGI (TK-10 renal) was 34.8 µM and the TGI (U251 CNS) was 31.2 µM. For the same molecule, the TGI (UACC-257 melanoma) was 32.2 µM, the TGI (UACC-62 melanoma) was 36.2 µM and the TGI (UO-31 renal) was 29.5 µM. For the same molecule, the TGI (XF 498 CNS) was 19.6 µM.

`CC(=O)OCC1OC(n2cc([N+](=O)[O-])c(=O)[nH]c2=O)C(OC(C)=O)C(OC(C)=O)C1OC(C)=O` (stereo unspecified) was tested, and the TGI (786-0 renal) was over 100 µM, the TGI (A498 renal) was over 100 µM and the TGI (A549 NSCLC) was over 100 µM. For the same molecule, the TGI (ACHN renal) was over 100 µM, the TGI (CAKI-1 renal) was over 100 µM and the TGI (CCRF-CEM leukemia) was over 100 µM. For the same molecule, the TGI (COLO 205 colon) was over 100 µM, the TGI (DLD-1 colon) was over 100 µM and the TGI (DMS 114 small cell lung) was over 100 µM. For the same molecule, the TGI (DMS 273 small cell lung) was over 100 µM, the TGI (EKVX NSCLC) was over 100 µM and the TGI (HCC-2998 colon) was over 100 µM. For the same molecule, the TGI (HCT-116 colon) was over 100 µM, the TGI (HCT-15 colon) was over 100 µM and the TGI (HL-60(TB) leukemia) was over 100 µM. It also gave a TGI (HOP-18 NSCLC) of over 100 µM, a TGI (HOP-62 NSCLC) of over 100 µM and a TGI (HOP-92 NSCLC) of over 100 µM. For the same molecule, the TGI (HT29 colon) was over 100 µM, the TGI (IGROV1 ovarian) was over 100 µM and the TGI (K-562 leukemia) was over 100 µM. It also gave a TGI (KM12 colon) of over 100 µM, a TGI (KM20L2 colon) of over 100 µM and a TGI (LOX IMVI melanoma) of over 100 µM. For the same molecule, the TGI (LXFL 529 NSCLC) was over 100 µM, the TGI (M14 melanoma) was over 100 µM and the TGI (M19-MEL melanoma) was over 100 µM. For the same molecule, the TGI (MALME-3M melanoma) was over 100 µM, the TGI (MOLT-4 leukemia) was over 100 µM and the TGI (NCI-H226 lung) was over 100 µM. The TGI (NCI-H23 lung) was over 100 µM, the TGI (NCI-H460 lung) was over 100 µM and the TGI (NCI-H522 lung) was over 100 µM. The TGI (OVCAR-3 ovarian) was over 100 µM, the TGI (OVCAR-4 ovarian) was over 100 µM and the TGI (OVCAR-5 ovarian) was over 100 µM. For the same molecule, the TGI (OVCAR-8 ovarian) was over 100 µM, the TGI (RPMI-8226 leukemia) was over 100 µM and the TGI (RXF 393 renal) was over 100 µM. It also gave a TGI (SF-268 CNS) of over 100 µM, a TGI (SF-295 CNS) of over 100 µM and a TGI (SK-MEL-2 melanoma) of over 100 µM. For the same molecule, the TGI (SK-MEL-28 melanoma) was over 100 µM, the TGI (SK-MEL-5 melanoma) was over 100 µM and the TGI (SK-OV-3 ovarian) was over 100 µM. It also gave a TGI (SN12C renal) of over 100 µM, a TGI (SNB-19 CNS) of over 100 µM and a TGI (SNB-75 CNS) of over 100 µM. For the same molecule, the TGI (SR leukemia) was over 100 µM, the TGI (SW-620 colon) was over 100 µM and the TGI (TK-10 renal) was over 100 µM. It also gave a TGI (U251 CNS) of over 100 µM, a TGI (UACC-257 melanoma) of over 100 µM and a TGI (UACC-62 melanoma) of over 100 µM. The TGI (UO-31 renal) was over 100 µM and the TGI (XF 498 CNS) was over 100 µM.
